We go through one molecule from PMC9166630, “SAR Probing of KX2-391 Provided Analogues With Juxtaposed Activity Profile Against Major Oncogenic Kinases” (Frontiers in Oncology, 2022).

What all share (settings): 4e 0.1 µM, HL60 lysate
The target in one assay is T1, Tyro3/Sky (Homo sapiens, UniProt Q06418).
T1 construct: endogenous in cells; host or cells: HL60 lysate
T1 sequence (Q06418 41-890): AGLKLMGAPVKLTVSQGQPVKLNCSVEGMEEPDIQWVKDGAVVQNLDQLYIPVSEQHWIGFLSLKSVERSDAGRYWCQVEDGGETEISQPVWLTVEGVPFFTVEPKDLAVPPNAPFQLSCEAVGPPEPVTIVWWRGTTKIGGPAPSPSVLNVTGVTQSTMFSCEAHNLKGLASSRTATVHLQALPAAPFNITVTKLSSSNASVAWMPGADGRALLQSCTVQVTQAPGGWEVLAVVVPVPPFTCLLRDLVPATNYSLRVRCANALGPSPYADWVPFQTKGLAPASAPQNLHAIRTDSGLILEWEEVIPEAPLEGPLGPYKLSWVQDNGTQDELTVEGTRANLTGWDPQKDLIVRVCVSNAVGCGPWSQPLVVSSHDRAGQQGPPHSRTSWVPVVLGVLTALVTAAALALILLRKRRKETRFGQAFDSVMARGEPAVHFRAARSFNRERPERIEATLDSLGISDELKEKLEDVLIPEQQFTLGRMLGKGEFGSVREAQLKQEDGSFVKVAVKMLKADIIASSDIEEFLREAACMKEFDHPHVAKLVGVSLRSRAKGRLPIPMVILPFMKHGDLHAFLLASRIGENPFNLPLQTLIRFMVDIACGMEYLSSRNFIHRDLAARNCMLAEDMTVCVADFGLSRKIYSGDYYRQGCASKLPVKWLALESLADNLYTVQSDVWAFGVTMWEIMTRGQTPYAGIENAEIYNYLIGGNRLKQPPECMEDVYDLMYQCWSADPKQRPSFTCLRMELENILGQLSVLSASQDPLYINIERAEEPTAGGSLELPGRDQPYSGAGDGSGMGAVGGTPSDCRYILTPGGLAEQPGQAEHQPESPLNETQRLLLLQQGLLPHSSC
Kind of assay: PamChip tyrosine kinase microarray, Tyro3/Sky. The format is biochemical. As for the experimental part: (§1) The changes in kinase activities induced by treatment with 4e were monitored within the HL60 cell lines using PamGene’s (Hertogenbosch, Netherlands) PamChip® peptide microarray profiler, which quantifies the activities of 144 tyrosine kinases (YK) ([29], [30]) (Figure 7). Results are provided as a log fold change (LFC) heatmap and Mean Kinase Statistic. From the LFC it is apparent that compound 4e, at a concentration of 0.1 µM, induced sizable changes to the activity of several kinases within the cell signaling YK profile (Figure 7A).
(§2) An Upstream Kinase tool was used to generate a putative list of kinases responsible for phosphorylating the phospho-sites on the PamChip (Figure 7B) ([31]). It is an interpretation and is highly dependent on the contents of the underlying phosphorylation databases. A Kinase Score was used for ranking kinases based on their significance and specificity in terms of the set of peptides used for the corresponding kinase. Kinase Statistics indicates the overall change of the peptide set that represents the kinase. Kinase statistics value <0 indicates lower kinase activity in the compound spiked lysate and vice versa ([32], [33]). Table 5 lists the 20 most changed kinases within treated HL60 cell lysates by 0.1 μM 4e, ranked according to their Kinase Score.
(§3) The compound 4e was spiked into HL60 cell lysate at different concentrations (0.001, 0.01, 0.1, 1, 10 and 50 μM). In addition, DMSO was also spiked in HL60 lysate at low concentration (2% v/v) as control. Samples were profiled on PamGene’s Tyrosine Kinase (PTK) arrays in technical replicates, covering a total of 196 phosphorylation sites. Frozen HL60 cultured cell pellet was sent to PamGene. At PamGene, cells were lysed using a lysis buffer and proteases inhibitors cocktail. Protein concentration was measured using standard Bradford assay as per PamGene SOPs. These lysates were further used for generating the PTK activity profiles. For spiking, 4e was received as powder form and dissolved in DMSO at PamGene facility followed by storing at -20°C in small aliquots. PamGene used its in-house bioinformatics toolbox in combination with other methods to generate hypotheses of signaling pathways.

A further assay concerns the target T2, ITK (Homo sapiens, UniProt Q08881).
T2 construct: endogenous in cells; host or cells: HL60 lysate
T2 sequence (Q08881 1-620): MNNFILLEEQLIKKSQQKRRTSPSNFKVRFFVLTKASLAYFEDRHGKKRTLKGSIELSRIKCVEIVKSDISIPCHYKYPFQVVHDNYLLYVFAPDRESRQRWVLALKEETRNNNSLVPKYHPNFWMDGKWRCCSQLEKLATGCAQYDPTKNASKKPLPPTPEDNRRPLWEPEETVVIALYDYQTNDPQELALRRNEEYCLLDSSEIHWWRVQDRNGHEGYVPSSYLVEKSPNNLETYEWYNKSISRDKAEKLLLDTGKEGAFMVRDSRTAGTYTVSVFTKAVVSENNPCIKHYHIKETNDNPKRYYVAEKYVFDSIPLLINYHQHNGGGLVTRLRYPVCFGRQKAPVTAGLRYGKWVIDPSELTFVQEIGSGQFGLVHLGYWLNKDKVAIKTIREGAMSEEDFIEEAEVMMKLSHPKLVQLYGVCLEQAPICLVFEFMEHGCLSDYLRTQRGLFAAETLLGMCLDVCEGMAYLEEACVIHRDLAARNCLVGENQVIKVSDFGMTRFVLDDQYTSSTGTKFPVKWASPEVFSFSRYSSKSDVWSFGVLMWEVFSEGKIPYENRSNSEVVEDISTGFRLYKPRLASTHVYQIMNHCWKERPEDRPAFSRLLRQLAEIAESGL
The experiment in a line: PamChip tyrosine kinase microarray, ITK. The class given is biochemical. As for the experimental part:
as §1, §2, §3

The subject of a further assay is Fyn. Kind of assay: PamChip tyrosine kinase microarray, Fyn. The class given is biochemical, human. How it is done:
as §1, §2
The two multiple-kinase tests (PamChip and Phosphokinase Profiler) provided strong evidence of very minor involvement of Src in the cellular activities of 4e. However, the question must be raised about the effect of the 4e on other SRC family kinase (SFK). To address this point, we must highlight that both R&D phosphokinase profiler and PamChip feature Yes, Fgr, Lyn, Lck and Src while Fyn, Hck, Blk and Frk activities are tested in the PamChip only. The signals of SFKs in the R&D Phosphokinase Profiler were too weak to detect in both untreated (control) and 4e-treated HL60 cells. In PamChip assay, most of SFK’s were not ranked in the top 20 affected kinases (Table 5). In addition, their Specificity Score were very low (Table 6) indicating their marginal importance to the cell killing activities of 4e. Fgr kinase which ranked 7th in the list (Table 5) was the only SFK member that seems to be affected by the compound, albeit with low Specificity Score (1.03).
The compound 4e was spiked into HL60 cell lysate at different concentrations (0.001, 0.01, 0.1, 1, 10 and 50 μM). In addition, DMSO was also spiked in HL60 lysate at low concentration (2% v/v) as control. Samples were profiled on PamGene’s Tyrosine Kinase (PTK) arrays in technical replicates, covering a total of 196 phosphorylation sites. Frozen HL60 cultured cell pellet was sent to PamGene. […] Protein concentration was measured using standard Bradford assay as per PamGene SOPs. […]

Regarding `O=C(Cc1ccc(NC(=O)c2cccc(Cl)c2)cc1)NCc1ccccc1` [Compound 4e, N-(4-(2-(benzylamino)-2-oxoethyl)phenyl)-3-chlorobenzamide], on Tyro3/Sky, the “Mean Final Score” value is given as 1.8204, the “Mean Kinase Statistic” value is listed as -0.5274, the “Mean Significance Score” value came out at 1.2459 and the “Mean Specificity Score” value was 0.5745. Also, on ITK, the “Mean Final Score” value stood at 1.9173, the “Mean Kinase Statistic” value is listed as -0.5666, the “Mean Significance Score” value is reported as 1.0723 and the “Mean Specificity Score” value is given as 0.8451. In addition, in the assay on Fyn, the “Mean Final Score” value amounted to 1.4765, the “Mean Kinase Statistic” value was -0.4963, the “Mean Significance Score” value is 1.1307 and the “Mean Specificity Score” value was 0.3458.
